Assay results as given in patent US10058495B2, “Method of making a skin care product” (The Procter & Gamble Company, priority 2014, dated 2018).
Residues, ends and D or L forms follow the SMILES beside them. *: point of attachment. Palmitoyl = CCCCCCCCCCCCCCCC(=O)*

Test: In vivo skin penetration study #2 (Tape Stripping method), magnetic vs non-magnetic applicator
Parameters: species or system human
Conditions: for amount of Pal-KTTKS recovered, Sum 2-10 / amount of Pal-KTTKS recovered, Sum 6-10: in ng (unit assumed)
Experimental: This method provides a suitable means of measuring the amount of skin care active present in skin, and comparing active versus passive application of the skin care active. Two identical rectangular areas of 15 cm^2 are marked on the volar forearms of volunteers. A measured dose (approximately 30 mg) of the Pal-KTTKS (SEQ ID NO: 1) formulation is applied to the delineated areas using a screw actuated syringe. Active application is carried out on one of the delineated areas using the three-quarter profile of a purpose made applicator (e.g., an applicator presenting one of the magnetic arrays set forth in Table 2). Passive application is accomplished on the other delineated area using the tip of a finger in a sweeping motion identical to that of the active application. The formulation is spread evenly across the entire delineated region using a sweeping motion with a fixed speed of approximately 23 cm/s to […]. The application period is 30 seconds during which time visual inspection is used to ensure even distribution and absorption of the formulation by skin. The application area is then left uncovered for a further 30 minutes to ensure complete absorption. Tape strip samples may be collected and/or analyzed immediately after the complete absorption is ensured or after a waiting period (e.g., after multiple applications of the formulation over multiple hours or days).
The tape stripping procedure is carried out using 10 commercial pre-cut 22.1 mm tape stripping adhesive discs (e.g., D-SQUAME, available from Cuderm Corporation or equivalent) with an adhesive area of 3.8 cm^2. The 10 tape strips are applied sequentially to the same sampling site, which ideally enables each tape strip to obtain a sample from deeper within the stratum corneum than the tape strip that preceded it. A 22.1 mm diameter circular region is marked at the center of the application area. A tape stripping adhesive disc is placed over the marked area and even pressure applied using, for example, a neoprene roller, rolled ten times over the adhesive disc. The adhesive disc is removed from the skin surface in a single pulling motion using manual tweezers. To ensure even removal of the skin sample, subsequent discs are removed in a “north, south, east and west” orientation, which is within the skill of the ordinary artisan. Each adhesive disc is non-destructively analysed for protein content using a suitable instrument (e.g., SquameScan™ 850 instrument commercially available from Heiland Electronics Wetzlar, Germany, or equivalent). The adhesive disc is then immediately placed into a glass vial containing extraction solvent in preparation for subsequent analysis. Solvent extractions are conducted on each tape strip using conventional extraction methods, which are well known to those of ordinary skill in the art, and measuring the amount of Pal-KTTKS (SEQ ID NO: 1) present in the extract, for example, by high performance liquid chromatography (“HPLC”) and/or mass spectrometry.
The procedure is repeated for the remaining nine strips. An additional strip is obtained from outside the area of application of the skin care formulation to serve as a blank sample. The amount of active is normalized to the amount of protein measured.
This in vivo skin penetration study compares the penetration of Pal-KTTKS (SEQ ID NO: 1) into skin when a Pal-KTTKS (SEQ ID NO: 1)-containing composition is applied with a magnetic applicator (active application) versus application with a non-magnetic applicator (passive application). In this example, 5 test subjects (A to E in Tables 13 and 14) were selected. 18 mg of a composition containing Pal-KTTKS (SEQ ID NO: 1) (Olay® Deep Wrinkle Treatment® brand skin cream available from the Procter & Gamble Company, Cincinnati, Ohio) was applied to two 3 cm×3 cm test sites on the inner forearms of each test subject using the applicator illustrated in FIG. 1C. The applicator used for active application included Array #8 from Table 2. […]

[1] = active, array #8, Avg of all test sites
[2] = active, array #8, subject A site 1
[3] = active, array #8, subject A site 2
[4] = active, array #8, subject B site 1
[5] = active, array #8, subject B site 2
[6] = active, array #8, subject C site 1
[7] = active, array #8, subject C site 2
[8] = active, array #8, subject D site 1
[9] = active, array #8, subject D site 2
[10] = active, array #8, subject E site 1
[11] = active, array #8, subject E site 2

CCCCCCCCCCCCCCCC(=O)N[C@@H](CCCCN)C(=O)N[C@H](C(=O)N[C@H](C(=O)N[C@@H](CCCCN)C(=O)N[C@@H](CO)C(=O)O)[C@@H](C)O)[C@@H](C)O [Pal-KTTKS, palmitoyl-lysine-threonine-threonine-lysine-serine] (Palmitoyl-KTTKS-OH; C-terminus assumed)
amount of Pal-KTTKS recovered, Sum 2-10 [1]: 42.02 | amount of Pal-KTTKS recovered, Sum 6-10 [1]: 22.74 | amount of Pal-KTTKS recovered, Sum 2-10 [2]: 83.43 | amount of Pal-KTTKS recovered, Sum 6-10 [2]: 53.81 | amount of Pal-KTTKS recovered, Sum 2-10 [3]: 40.40 | amount of Pal-KTTKS recovered, Sum 6-10 [3]: 17.29 | amount of Pal-KTTKS recovered, Sum 2-10 [4]: 42.67 | amount of Pal-KTTKS recovered, Sum 6-10 [4]: 21.36 | amount of Pal-KTTKS recovered, Sum 2-10 [5]: 36.84 | amount of Pal-KTTKS recovered, Sum 6-10 [5]: 16.95 | amount of Pal-KTTKS recovered, Sum 2-10 [6]: 31.64 | amount of Pal-KTTKS recovered, Sum 6-10 [6]: 19.40 | amount of Pal-KTTKS recovered, Sum 2-10 [7]: 90.87 | amount of Pal-KTTKS recovered, Sum 6-10 [7]: 54.66 | amount of Pal-KTTKS recovered, Sum 2-10 [8]: 18.10 | amount of Pal-KTTKS recovered, Sum 6-10 [8]: 9.26 | amount of Pal-KTTKS recovered, Sum 2-10 [9]: 18.31 | amount of Pal-KTTKS recovered, Sum 6-10 [9]: 8.02 | amount of Pal-KTTKS recovered, Sum 2-10 [10]: 31.17 | amount of Pal-KTTKS recovered, Sum 6-10 [10]: 14.86 | amount of Pal-KTTKS recovered, Sum 2-10 [11]: 26.78 | amount of Pal-KTTKS recovered, Sum 6-10 [11]: 11.84 | Enhancement value Strips 2-10 (active/passive) (array #8, Avg of the enhancement values of all test sites): 4.00 | Enhancement value Strips 2-10 (active/passive) (array #8, subject A site 1): 1.34 | Enhancement value Strips 6-10 (active/passive) (array #8, subject A site 1): 1.33 | Enhancement value Strips 2-10 (active/passive) (array #8, subject A site 2): 16.52 | Enhancement value Strips 2-10 (active/passive) (array #8, subject B site 1): 3.39 | Enhancement value Strips 6-10 (active/passive) (array #8, subject B site 1): 18.16 | Enhancement value Strips 2-10 (active/passive) (array #8, subject B site 2): 3.47 | Enhancement value Strips 2-10 (active/passive) (array #8, subject C site 1): 2.23 | Enhancement value Strips 6-10 (active/passive) (array #8, subject C site 1): 3.03 | Enhancement value Strips 2-10 (active/passive) (array #8, subject C site 2): 1.32 | Enhancement value Strips 6-10 (active/passive) (array #8, subject C site 2): 1.22 | Enhancement value Strips 2-10 (active/passive) (array #8, subject D site 1): 1.72 | Enhancement value Strips 6-10 (active/passive) (array #8, subject D site 1): 3.63 | Enhancement value Strips 2-10 (active/passive) (array #8, subject D site 2): 2.35 | Enhancement value Strips 2-10 (active/passive) (array #8, subject E site 1): 4.86 | Enhancement value Strips 6-10 (active/passive) (array #8, subject E site 1): 10.70 | Enhancement value Strips 2-10 (active/passive) (array #8, subject E site 2): 2.75 | Enhancement value Strips 6-10 (active/passive) (array #8, subject E site 2): 6.73 | amount of Pal-KTTKS recovered, Sum 2-10 (passive, Avg of all test sites): 20.55 | amount of Pal-KTTKS recovered, Sum 6-10 (passive, Avg of all test sites): 10.01 | amount of Pal-KTTKS recovered, Sum 2-10 (passive, subject A site 1): 62.40 | amount of Pal-KTTKS recovered, Sum 6-10 (passive, subject A site 1): 40.39 | amount of Pal-KTTKS recovered, Sum 2-10 (passive, subject A site 2): 2.45 | amount of Pal-KTTKS recovered, Sum 6-10 (passive, subject A site 2): 0.00 | amount of Pal-KTTKS recovered, Sum 2-10 (passive, subject B site 1): 12.58 | amount of Pal-KTTKS recovered, Sum 6-10 (passive, subject B site 1): 2.25 | amount of Pal-KTTKS recovered, Sum 2-10 (passive, subject B site 2): 10.61 | amount of Pal-KTTKS recovered, Sum 6-10 (passive, subject B site 2): 1.04 | amount of Pal-KTTKS recovered, Sum 2-10 (passive, subject C site 1): 14.16 | amount of Pal-KTTKS recovered, Sum 6-10 (passive, subject C site 1): 5.56 | amount of Pal-KTTKS recovered, Sum 2-10 (passive, subject C site 2): 68.87 | amount of Pal-KTTKS recovered, Sum 6-10 (passive, subject C site 2): 43.44 | amount of Pal-KTTKS recovered, Sum 2-10 (passive, subject D site 1): 10.53 | amount of Pal-KTTKS recovered, Sum 6-10 (passive, subject D site 1): 3.35 | amount of Pal-KTTKS recovered, Sum 2-10 (passive, subject D site 2): 7.81 | amount of Pal-KTTKS recovered, Sum 6-10 (passive, subject D site 2): 0.00 | amount of Pal-KTTKS recovered, Sum 2-10 (passive, subject E site 1): 6.41 | amount of Pal-KTTKS recovered, Sum 6-10 (passive, subject E site 1): 1.72 | amount of Pal-KTTKS recovered, Sum 2-10 (passive, subject E site 2): 9.74 | amount of Pal-KTTKS recovered, Sum 6-10 (passive, subject E site 2): 2.31
